# Experimental data: US20240216519A1, “SMALL HYDROPHOBIC PROTEIN DRUG CONJUGATES AND USES THEREOF” (priority 2021, published 2024)
# Where no end group is shown, it is not given here.
# T1: GPR125 (ADGRA3) (Homo sapiens, UniProt Q8IWK6)
# T1 sequence (Q8IWK6 34-1321): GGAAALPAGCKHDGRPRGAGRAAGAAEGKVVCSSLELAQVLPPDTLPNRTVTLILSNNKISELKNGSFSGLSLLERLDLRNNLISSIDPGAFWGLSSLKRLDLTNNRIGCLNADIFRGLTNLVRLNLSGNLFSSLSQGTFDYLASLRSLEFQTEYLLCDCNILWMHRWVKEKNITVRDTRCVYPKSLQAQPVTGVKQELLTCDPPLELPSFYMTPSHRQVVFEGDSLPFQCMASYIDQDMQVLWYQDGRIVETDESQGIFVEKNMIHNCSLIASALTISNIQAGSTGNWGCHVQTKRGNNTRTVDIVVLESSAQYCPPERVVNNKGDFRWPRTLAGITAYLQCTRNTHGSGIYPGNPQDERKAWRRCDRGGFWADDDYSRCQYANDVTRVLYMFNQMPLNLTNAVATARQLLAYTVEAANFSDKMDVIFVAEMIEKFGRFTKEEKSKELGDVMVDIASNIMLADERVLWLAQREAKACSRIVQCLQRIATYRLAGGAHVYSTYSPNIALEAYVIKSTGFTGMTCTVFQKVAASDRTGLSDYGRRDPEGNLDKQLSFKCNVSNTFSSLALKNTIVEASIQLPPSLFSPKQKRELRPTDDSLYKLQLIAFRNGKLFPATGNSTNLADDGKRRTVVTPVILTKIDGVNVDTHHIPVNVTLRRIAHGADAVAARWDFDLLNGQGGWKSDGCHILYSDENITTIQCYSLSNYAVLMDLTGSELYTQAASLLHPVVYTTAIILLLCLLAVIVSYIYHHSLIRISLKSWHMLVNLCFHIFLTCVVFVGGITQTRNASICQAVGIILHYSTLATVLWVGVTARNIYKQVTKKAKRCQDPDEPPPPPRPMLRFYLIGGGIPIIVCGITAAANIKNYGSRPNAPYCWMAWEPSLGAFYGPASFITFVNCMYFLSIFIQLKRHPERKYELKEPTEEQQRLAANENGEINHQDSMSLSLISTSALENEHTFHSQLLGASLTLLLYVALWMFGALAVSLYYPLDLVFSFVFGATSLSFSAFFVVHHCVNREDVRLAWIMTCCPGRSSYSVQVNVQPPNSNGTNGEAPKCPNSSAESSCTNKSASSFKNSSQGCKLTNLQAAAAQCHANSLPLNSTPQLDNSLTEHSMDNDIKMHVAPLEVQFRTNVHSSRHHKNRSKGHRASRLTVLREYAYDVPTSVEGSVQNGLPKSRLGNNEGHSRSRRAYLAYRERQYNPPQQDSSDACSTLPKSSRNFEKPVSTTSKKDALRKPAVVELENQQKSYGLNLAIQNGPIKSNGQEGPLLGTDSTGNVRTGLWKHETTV
# T2: GPR125 (ADGRA3) in mouse choroid plexus (mouse, UniProt Q7TT36 28-1310)
# T2 construct: whole, on cells
# T2 sequence: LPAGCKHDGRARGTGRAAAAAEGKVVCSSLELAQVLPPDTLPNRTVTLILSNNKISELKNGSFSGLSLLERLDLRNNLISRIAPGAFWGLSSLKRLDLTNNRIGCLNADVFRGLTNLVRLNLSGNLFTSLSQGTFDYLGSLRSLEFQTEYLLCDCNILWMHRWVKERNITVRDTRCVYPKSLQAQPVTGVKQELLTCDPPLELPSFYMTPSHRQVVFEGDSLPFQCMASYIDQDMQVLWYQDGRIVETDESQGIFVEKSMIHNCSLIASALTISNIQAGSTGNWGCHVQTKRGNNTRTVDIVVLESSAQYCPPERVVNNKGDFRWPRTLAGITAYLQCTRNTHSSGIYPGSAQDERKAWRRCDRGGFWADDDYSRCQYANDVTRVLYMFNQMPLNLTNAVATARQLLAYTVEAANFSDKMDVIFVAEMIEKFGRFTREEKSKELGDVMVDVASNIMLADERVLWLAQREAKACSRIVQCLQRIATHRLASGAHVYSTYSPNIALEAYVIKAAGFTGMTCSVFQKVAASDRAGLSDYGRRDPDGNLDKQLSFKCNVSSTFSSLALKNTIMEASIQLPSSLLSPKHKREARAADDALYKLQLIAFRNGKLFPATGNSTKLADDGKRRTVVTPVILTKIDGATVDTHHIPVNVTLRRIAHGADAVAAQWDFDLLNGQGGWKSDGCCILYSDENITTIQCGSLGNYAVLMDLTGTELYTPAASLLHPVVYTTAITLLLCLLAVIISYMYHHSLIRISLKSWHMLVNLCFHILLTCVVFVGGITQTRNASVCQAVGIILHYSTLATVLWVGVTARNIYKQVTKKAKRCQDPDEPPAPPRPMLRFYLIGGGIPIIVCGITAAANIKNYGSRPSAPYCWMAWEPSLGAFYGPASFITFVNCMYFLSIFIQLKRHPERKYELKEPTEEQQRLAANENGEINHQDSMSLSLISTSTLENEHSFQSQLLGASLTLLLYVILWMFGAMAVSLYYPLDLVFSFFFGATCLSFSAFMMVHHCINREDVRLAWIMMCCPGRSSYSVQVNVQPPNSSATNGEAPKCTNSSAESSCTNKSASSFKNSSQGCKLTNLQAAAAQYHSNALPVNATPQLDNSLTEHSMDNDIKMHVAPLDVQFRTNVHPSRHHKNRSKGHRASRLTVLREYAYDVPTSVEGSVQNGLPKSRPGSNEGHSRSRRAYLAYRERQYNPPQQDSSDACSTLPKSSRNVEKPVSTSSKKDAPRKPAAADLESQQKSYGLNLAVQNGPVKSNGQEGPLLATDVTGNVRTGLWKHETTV
# B1: TAMRA labelled SH-protein (SEQ ID NO: 129) (other)
# chain: MPAIQPPLYLTFLLLILLYLIITLYVWIILTVTYKTAVRHAALYQRSFFHWSFDHSL
# modifications: also: TAMRA labelled
# notes: also called TAMRA-functionalized SH protein
# Experiments:
# [1] = tested on: Diet induced obese C57BL/6NTac male mice; assay: Acute food intake in diet induced obese mice, s.c. (Example 11); type: in vivo, mouse; conditions: 15 nmol/kg s.c., conjugate also vs GLP-1(7-36)
# Description: Diet induced obese C57BL/6NTac male mice were purchased from Taconic and continued on a high fat high sucrose diet with free access to water. One week after arrival, animals were double or single housed. […] Thirty minutes prior peptide injection, all mice were administered subcutaneously with DDP-4 inhibitor Valine-pyrrolidide (3 mg/mouse). Food intake was measured after 1, 2, 4 and 14 hours (FIG. 15A-D).
# [2] = tested on: C57BL/6J mice; assay: Acute food intake in lean mice, s.c. (Example 10); type: in vivo, mouse
# Description: Female C57BL/6J mice were purchased from Charles Rivers. One week before study initiation the mice were single housed with free access to food and water. […] Thirty minutes prior peptide injection, all mice were administered subcutaneously with DDP-4 inhibitor Valine-pyrrolidide (1.5 mg/mouse). Food intake was measured after 1, 2, 4 and 14 hours (FIG. 14A-D).
# Results shown are combined data from five studies with an identical study design as described above. Between each study mice had at least one week washout period.
# [3] = Plasma and CSF concentrations after injection into vena cava (RIA GLP-1 assay); type: in vivo; conditions: rat, 10 min after i.v. injection
# Description: Male Sprague Dawley rats were purchased from Charles Rivers. Animals were anesthetized by hypnorm/dormicum, and restrained in a stereotactic instrument. […] Blood samples were collected prior to the injection of test compounds and straight after CSF aspiration.
# The assay buffer was 100 mM Tris buffer with pH 8.5 containing 1% (wt/vol) human serum albumin, 0.01 mM valine-pyrrolidide and 500 KIE aprotinin (final concentrations). […] Plasma and CSF concentrations were measured after dilution in assay buffer. Free and bound moieties were separated with plasma-coated charcoal.
# [4] = tested on: C57BL/6J mice; assay: Acute food intake in lean mice, SH(2-11)-Exendin-4 (Example 12); type: in vivo, mouse; conditions: 15 nmol/kg s.c., conjugate also vs Exendin-4(1-39)
# Description: Female C57BL/6J mice were purchased from Charles Rivers. One week before study initiation the mice were single housed with free access to food and water. […] Food intake was measured after 1, 2, 4 and 14 hours (FIG. 16A-D).
# [5] = target: T1, GPR125 (ADGRA3); assay: xCELLigence impedance, HEK293 Flp-In T-rex cells with full length GPR125; type: cell-based; design: HEK293 Flp-In T-rex cells stably transfected with full length (FL) GPR125; expressed in transfected cells; host or cells: HEK293 Flp-In T-rex cells; conditions: HEK293 Flp-In T-rex cells stably transfected with full length (FL) GPR125, first 30 minutes after stimulation
# Description: (§1) Once the cells are added to the E-plate they are allowed to adhere and proliferate for 18 hours during which the impedance is measured every 15 minutes generating the initial adhesion and growth curve. Upon stimulation the measurements are change to rapid detection every 15 seconds followed by every minute and every 5 minutes during the first hour after stimulation.
# [6] = target: T1, GPR125 (ADGRA3); assay: xCELLigence impedance, MDA231 cells endogenously expressing GPR125; type: cell-based; conditions: first 30 minutes after stimulation
# Description: as §1
# [7] = target: T2, GPR125 (ADGRA3) in mouse choroid plexus; assay: fluorescence microscopy of mouse brain cryosections, WT against GPR125 KO (KO stained only at 22 µM and 11 µM)
molecule,measurement,setting,value
"CC[C@H](C)[C@H](NC(=O)[C@H](Cc1ccccc1)NC(=O)[C@H](CCC(=O)O)NC(=O)[C@H](CCCCN)NC(=O)[C@H](C)NC(=O)[C@H](C)NC(=O)[C@H](CCC(N)=O)NC(=O)CNC(=O)[C@H](CCC(=O)O)NC(=O)[C@H](CC(C)C)NC(=O)[C@H](Cc1ccc(O)cc1)NC(=O)[C@H](CO)NC(=O)[C@H](CO)NC(=O)[C@@H](NC(=O)[C@H](CC(=O)O)NC(=O)[C@H](CO)NC(=O)[C@@H](NC(=O)[C@H](Cc1ccccc1)NC(=O)[C@@H](NC(=O)CNC(=O)[C@H](CCC(=O)O)NC(=O)[C@H](C)NC(=O)[C@@H](N)Cc1c[nH]cn1)[C@@H](C)O)[C@@H](C)O)C(C)C)C(=O)N[C@@H](C)C(=O)N[C@@H](Cc1c[nH]c2ccccc12)C(=O)N[C@@H](CC(C)C)C(=O)N[C@H](C(=O)N[C@@H](CCCCN)C(=O)NCC(=O)N[C@@H](CCCNC(=N)N)C(N)=O)C(C)C [GLP-1(7-36), GLP-1 (7-36) amide, reference compound]",food intake compared to vehicle,[1]; after 1 hour,decreased food intake
same,food intake compared to vehicle,[1]; after 2 hours,decreased food intake
same,food intake compared to vehicle,[1]; after 4 hours,not present
same,food intake compared to vehicle,"[2]; 15 nmol/kg s.c., after 1 hour",did not show a significant decrease
same,food intake compared to vehicle,"[2]; 15 nmol/kg s.c., after 2 hours",did not show a significant decrease
same,food intake compared to vehicle,"[2]; 15 nmol/kg s.c., after 4 hours",did not show a significant decrease
same,food intake compared to vehicle,"[2]; 15 nmol/kg s.c., after 14 hours",did not show a significant decrease
same,food intake compared to vehicle,"[2]; 30 nmol/kg s.c., after 1 hour",decreased their food intake significantly
same,food intake compared to vehicle,"[2]; 30 nmol/kg s.c., after 2 hours",decreased their food intake significantly
same,food intake compared to vehicle,"[2]; 30 nmol/kg s.c., after 4 hours",less significant
same,detectable in CSF by RIA GLP-1 assay,[3],detectable
Exendin-4 [Exendin-4(1-39)],food intake compared to vehicle,[4]; after 1 hour,decreased food intake
same,food intake compared to vehicle,[4]; after 2 hours,decreased food intake
same,food intake compared to vehicle,[4]; after 4 hours,less significant
"SH1-9: MPAIQPPLY, MuV SH protein fragment (1-9) (Genotype G Genbank ID QFO38283.1 1-9)","GPR125 signaling, area under the curve (AUC) of impedance",[5],affected GPR125 signaling
same,"GPR125 signaling, area under the curve (AUC) of impedance",[6],affected GPR125 signaling
SH1-57: whole mumps virus SH protein 1-57 (MPAIQPPLYLTFLLLILLYLIITLYVWIILTITYKTAVRHAALYQRSFFRWSFDHSL; Genotype G Genbank ID QFO38283.1 1-57; (1)..(57) Genotype G Genbank ID QFO38283.1 1-57),"GPR125 signaling, area under the curve (AUC) of impedance",[5],affected GPR125 signaling
same,"GPR125 signaling, area under the curve (AUC) of impedance",[6],affected GPR125 signaling
"SH2-9: PAIQPPLY, MuV SH protein fragment (2-9) (Genotype G Genbank ID QFO38283.1 2-9)","GPR125 signaling, area under the curve (AUC) of impedance",[5],affected GPR125 signaling
same,"GPR125 signaling, area under the curve (AUC) of impedance",[6],affected GPR125 signaling
B1,binding result,[7],binds
